In US5288730A, “Azabicyclic compounds, pharmaceutical compositions containing them and their use in therapy” (Merck Sharp & Dohme Limited, priority 1991, dated 1994):
Structures can show the parent of a compound that is named as a salt.

Molecular target: T1, human neurokinin-1-receptor (NK1R) (Homo sapiens, UniProt P25103)
T1 construct: expressed in transfected cells
Assay: Substance P antagonism assay: 125I-substance P binding to human NK1R expressed in COS or CHO cells
Settings: 125I-substance P displacement, 4° C. or room temperature, 1 hour
Description: To express the cloned human neurokinin-1-receptor (NK1R) transiently in COS, the cDNA for the human NK1R was cloned into the expression vector pCDM9 which was derived from pCDM8 (INVITROGEN) by inserting the ampicillin resistance gene (nucleotide 1973 to 2964 from BLUESCRIPT SK+ (trademark, STRATAGENE, La Jolla, Calif., USA)) into the Sac II site. Transfection of 20 ug of the plasmid DNA into 10 million COS cells was achieved by electroporation in 800 μof transfection buffer (135 mM NaCl, 1.2 mM CaCl2, 1.2 mM MgCl2 2.4 mM K2 HPO4, 0.6 mM KH2 PO4, 10 mM glucose, 10 mM N-2-hydroxyethyl-piperazine-N'-2-ethane sulphonic acid (HEPES) pH 7.4) at 260 V and 950 μusing the IBI GENEZAPPER (trademark IBI, New Haven, Conn., USA). The cells were incubated in 10% fetal calf serum, 2 mM glutamine, 100 U/ml penicillin-streptomycin, and 90% DMEM media (GIBCO, Grand Island, N.Y., USA) in 5% CO2 at 37° C. for three days before the binding assay.
To establish a stable cell line expressing cloned human NK1R, the cDNA was subcloned into the vector pRcCMV (INVITROGEN). Transfection of 20 ug of the plasmid DNA into CHO cells was achieved by electroporation in 800 μl of transfection buffer supplemented with 0.625 mg/ml Herring sperm DNA at 300 V and 950 μF using the IBI GENEZAPPER (IBI). The transfected cells were incubated in CHO media [10% fetal calf serum, 100 U/ml penicillin-streptomycin, 2 mM glutamine, 1/500 hypoxanthine-thymidine (ATCC), 90% IMDM media (JRH BIOSCIENCES, Lenexa, Kans., USA), 0.7 mg/ml G418 (GIBCO)] in 5% CO2 at 37° C. until colonies were visible. Each colony was separated and propagated. The cell clone with the highest number of human NK1R was selected for subsequent applications such as drug screening.
The binding assay of human NK1R expressed in either COS or CHO cells is based on the use of ^125 I-substance P (^125 I-SP, from DU PONT, Boston, Mass.) as a radioactively labeled ligand which competes with unlabeled substance P or any other ligand for binding to the human NK1R. Monolayer cell cultures of COS or CHO were dissociated by the non-enzymatic solution (SPECIALTY MEDIA, Lavellette, N.J.) and resuspended in appropriate volume of the binding buffer (50 mM Tris pH 7.5, 5 mM MnCl2, 150 mM NaCl, 0.04 mg/ml bacitracin, 0.004 mg/ml leupeptin, 0.2 mg/ml BSA, 0.01 mM phosphoramidon) such that 200 μl of the cell suspension would give rise to about 10,000 cpm of specific ^125 I-SP binding (approximately 50,000 to 200,000 cells). In the binding assay, 200 ul of cells were added to a tube containing 20 ul of 1.5 to 2.5 nM of ^125 I-SP and 20 μl of unlabeled substance P or any other test compound. The tubes were incubated at 4° C. or at room temperature for 1 hour with gentle shaking. The bound radioactivity was separated from unbound radioactivity by GF/C filter (BRANDEL, Gaithersburg, Md.) which was prewetted with 0.1% polyethylenimine. The filter was washed with 3 ml of wash buffer (50 mM Tris pH 7.5, 5 mM MnCl2, 150 mM NaCl) three times and its radioactivity was determined by gamma counter.

T1 sequence (P25103 whole entry): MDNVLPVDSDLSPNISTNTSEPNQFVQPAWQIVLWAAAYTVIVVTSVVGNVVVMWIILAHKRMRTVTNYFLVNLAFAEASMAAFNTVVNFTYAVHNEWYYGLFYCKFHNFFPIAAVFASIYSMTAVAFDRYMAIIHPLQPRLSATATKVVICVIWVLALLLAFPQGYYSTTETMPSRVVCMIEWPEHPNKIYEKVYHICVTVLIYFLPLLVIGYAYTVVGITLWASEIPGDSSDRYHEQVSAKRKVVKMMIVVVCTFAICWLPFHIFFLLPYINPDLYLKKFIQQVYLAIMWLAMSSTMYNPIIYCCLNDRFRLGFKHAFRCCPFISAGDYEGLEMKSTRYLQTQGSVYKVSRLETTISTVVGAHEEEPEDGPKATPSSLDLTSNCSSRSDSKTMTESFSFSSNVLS

SMILES | IC50
FC(F)(F)c1cc(COC2C3CCN(CC3)C2C(Cc2ccccc2)c2ccccc2)cc(C(F)(F)F)c1 (single isomer, unassigned) [2: ISOMER B] | 6.3 nM
Cc1cc(C)cc(COC2C3CCN(CC3)C2C(Cc2ccccc2)c2ccccc2)c1 (single isomer, unassigned) [1: ISOMER C] | > 100 nM
FC(F)(F)c1cc(COC2C3CCN(CC3)C2C(Cc2ccccc2)c2ccccc2)cc(C(F)(F)F)c1 (single isomer, unassigned) [2: ISOMER A] | 4.5 nM
COc1cccc(C(Cc2ccccc2)C2C(OCc3cc(C(F)(F)F)cc(C(F)(F)F)c3)C3CCN2CC3)c1 (single isomer, unassigned) [4: ISOMER A] | 10 nM
COc1cccc(C(Cc2ccccc2)C2C(OCc3cc(C(F)(F)F)cc(C(F)(F)F)c3)C3CCN2CC3)c1 (single isomer, unassigned) [4: ISOMER B] | 1.8 nM
Cc1cc(C)cc(COC2C3CCN(CC3)C2C(Cc2ccccc2)c2ccccc2)c1 (single isomer, unassigned) [1: ISOMER B] | 1.8 nM
FC(F)(F)c1cc(COC2C3CCN(CC3)C2C(c2ccccc2)C2CCCCC2)cc(C(F)(F)F)c1 (stereo not drawn) [Example 5, 3-(3,5-Bis(trifluoromethyl)phenyl)methyloxy-2-(α-cyclohexylbenzyl)-1-azabicyclo[2.2.2]octane oxalate hemihydrate] | 3 nM
FC(F)(F)c1cc(COC2C3CCN(CC3)C2C(Cc2ccccc2)c2ccccc2)cc(C(F)(F)F)c1 (single isomer, unassigned) [2: ISOMER C] | > 100 nM
Cc1cc(C)cc(COC2C3CCN(CC3)C2C(Cc2ccccc2)c2ccccc2)c1 (single isomer, unassigned) [1: ISOMER A] | 2.4 nM
COc1ccc(C(Cc2ccccc2)C2C(OCc3cc(C(F)(F)F)cc(C(F)(F)F)c3)C3CCN2CC3)cc1 (single isomer, unassigned) [3: ISOMER A] | 3 nM
